ChEMBL document CHEMBL1151298, “Plant anticancer agents XXIX. Cleomiscosin A from Simaba multiflora, Soulamea soulameoides, and Matayba arborescens” (1984)
Converted amounts (≈) assume the structure as drawn.

Tests used:
[1] = tested on: P388; test: Cytotoxicity against mouse P388 cells; assay type: functional; settings: read-out: ED50 (the source's name)
[2] = tested on: KB; test: Cytotoxicity against human KB cells; assay type: functional; settings: read-out: ED50 (the source's name)

COc1cc([C@H]2Oc3c(OC)cc4ccc(=O)oc4c3O[C@@H]2CO)ccc1O [CLEOMISCOSIN A]
EC50 [1]: 3.8 µg/mL (≈ 9.84 µM) | EC50 [2]: 4.9 µg/mL (≈ 12.7 µM)
